This passage reports -Delta G results from ChEMBL document CHEMBL1124120, “Mapping of the beta 2-adrenoceptor on Chang liver cells. Differences between high- and low-affinity receptor states” (J Med Chem, 1988).

Structures are written as SMILES.

Assay [1] deals with Beta-2 adrenergic receptor (Bos taurus) (UniProt Q28044). To be noted: Muscle tissue.
Description: Change in Gibb's free energy at Low affinity beta-2-adrenoceptor in the membranes of bovine skeletal muscle preparation
Assay [2] deals with Beta-2 adrenergic receptor (Homo sapiens) (UniProt P07550).
Description: Change in Gibb's free energy at Low affinity beta-2-adrenoceptor in the Chang living cells
The target is the same in assay [3]. This is another data set of the same source.
Description: Change in Gibb's free energy at High affinity beta2- adrenoceptor in Chang living cells.

Beta-2 adrenergic receptor (Bos taurus), sequence (Q28044 whole entry, looked up): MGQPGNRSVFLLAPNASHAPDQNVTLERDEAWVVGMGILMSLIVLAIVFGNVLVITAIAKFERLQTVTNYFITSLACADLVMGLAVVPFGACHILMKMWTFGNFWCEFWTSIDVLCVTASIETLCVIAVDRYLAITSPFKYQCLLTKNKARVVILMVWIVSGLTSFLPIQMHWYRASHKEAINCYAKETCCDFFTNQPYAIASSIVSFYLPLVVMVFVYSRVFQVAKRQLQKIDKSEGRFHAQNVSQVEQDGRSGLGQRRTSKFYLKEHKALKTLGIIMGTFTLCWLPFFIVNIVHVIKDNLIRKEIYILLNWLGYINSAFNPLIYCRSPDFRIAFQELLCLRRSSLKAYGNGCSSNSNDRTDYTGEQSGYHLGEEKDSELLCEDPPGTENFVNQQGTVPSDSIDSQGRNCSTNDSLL
Beta-2 adrenergic receptor (Homo sapiens), sequence (P07550 whole entry, looked up): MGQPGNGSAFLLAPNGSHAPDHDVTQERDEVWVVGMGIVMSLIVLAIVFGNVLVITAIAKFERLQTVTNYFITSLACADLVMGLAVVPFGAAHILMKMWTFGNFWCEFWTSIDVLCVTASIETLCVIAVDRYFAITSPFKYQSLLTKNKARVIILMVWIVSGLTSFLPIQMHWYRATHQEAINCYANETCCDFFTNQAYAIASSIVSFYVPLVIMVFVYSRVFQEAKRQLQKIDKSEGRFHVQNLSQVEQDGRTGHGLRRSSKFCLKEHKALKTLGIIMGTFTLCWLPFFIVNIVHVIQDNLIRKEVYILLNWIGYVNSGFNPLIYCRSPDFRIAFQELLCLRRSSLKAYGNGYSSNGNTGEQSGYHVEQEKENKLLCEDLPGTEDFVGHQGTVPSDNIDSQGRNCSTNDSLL

`C=CCc1ccccc1OCC(O)CNC(C)C` (stereo not given) returned a -Delta G in assay [1] of 13.3.
For the molecule `C=CCc1ccccc1OCC(O)CNCC(C)(C)N` (stereo not given), in assay [2], the -Delta G is 9.54.
The same measure, in the same setting: for `CC(C)(C)NCC(O)c1ccccc1Cl` (stereo not given) the value was 9.17.
Same read-out and setting: the same measure for `CC(C)NCC(O)COc1cccc2[nH]ccc12` (stereo not given): 12.8.
Take `CCCc1ccccc1OCC(O)CNC(C)C` (stereo not given): the -Delta G in assay [1] was determined as 13.1; in assay [2], 12.9.
For the molecule `CNC[C@H](O)c1ccc(O)c(O)c1`, the figures for the -Delta G in assay [2] and in assay [3] were 6.92 and 10.1, respectively.
`NC[C@H](O)c1ccc(O)c(O)c1`: the -Delta G was 6 in assay [2] and 8.64 in assay [3].
On to `CC(C)(C)NCC(O)COc1cccc2[nH]c(C#N)c(I)c12` (racemic), for which, in assay [2], the -Delta G worked out at 15.2.
`CC(C)(C)NCC(O)c1cc(Cl)c(N)c(Cl)c1` (racemic) displayed a -Delta G in assay [1] of 11.
For `CC(C)(C)NCC(O)c1cc(Cl)c(O)c(Cl)c1` (racemic), the -Delta G in assay [1] was determined as 10.5; in assay [2] it was 11.1.
For `CC(C)(C)NCC(O)c1cc(O)cc(O)c1` (racemic), the -Delta G in assay [1] amounted to 8.13.
Turning to `CC(C)(C)NCC(O)c1ccc(O)c(C(N)=O)c1` (racemic), the figures for the -Delta G in assay [2] and in assay [3] were 9.54 and 11.2, respectively.
With `CC(C)(C)NCC(O)c1ccc(O)c(CO)c1` (racemic), in assay [1], the -Delta G amounted to 9.34.
Take `CC(C)(C)NCC(O)c1ccc(O)c(N)c1` (racemic): the -Delta G was determined as 8.5 in assay [1], 7.73 in assay [2] and 9.69 in assay [3].
The corresponding values for `CC(C)(C)NCC(O)c1ccc(O)c(O)c1` (racemic) are 9.29, 8.5 and 11.7.
For `CC(C)(N)CNCC(O)COc1cccc2[nH]ccc12` (racemic), the -Delta G in assay [2] came to 10.1.
`CC(C)NCC(O)c1cc(Cl)c(N)c(Cl)c1` (racemic): the figures for the -Delta G in assay [1], in assay [2] and in assay [3] were 10.7, 9.08 and 11.1, respectively.
Take `CC(C)NCC(O)c1cc(O)cc(O)c1` (racemic): the -Delta G in assay [2] stood at 7.19; in assay [3], 10.7.
For the molecule `CC(C)NCC(O)c1ccc(NS(C)(=O)=O)cc1` (racemic), the -Delta G in assay [1] was 9.32.
Consider `CC(C)NCC(O)c1ccc(O)c(CO)c1` (racemic), for which the -Delta G turned out to be 7.41 in assay [2] and 9.6 in assay [3].
As to `CC(C)NCC(O)c1ccc(O)c(N)c1` (racemic), the -Delta G amounted to 7.93 in assay [1], 7.17 in assay [2] and 9.13 in assay [3].
The molecule `CC(C)NCC(O)c1ccc(O)cc1` (racemic) came in with a -Delta G in assay [3] of 9.76.
In turn, `CC(C)NCC(O)c1ccc([N+](=O)[O-])cc1` (racemic) registered a -Delta G in assay [2] of 8.23.
In the case of `CC(C)NCC(O)c1ccc2ccccc2c1` (racemic), the -Delta G in assay [1] worked out at 10.1.
Consider `CC(C)NCC(O)c1cccc(O)c1` (racemic), for which the figures for the -Delta G in assay [1] and in assay [2] were 9 and 7.05, respectively.
The corresponding values for `CC(C)NC[C@H](O)COc1ccc(O)cc1` (racemic) are 8.9 and 9.76.
Molecule `CC(Cc1ccc(O)cc1)NCC(O)c1cc(O)cc(O)c1` (racemic) displayed a -Delta G in assay [2] of 8.28.
With `CNc1cc(C(O)CNC(C)(C)C)ccc1O` (racemic), the -Delta G in assay [2] worked out at 9.39; in assay [3], 10.5.
Consider `Cc1cc(C)cc(OCC(O)CNC(C)C)c1` (racemic), for which the -Delta G is 11.8 in assay [1] and 10.4 in assay [2].
The corresponding values for `Cc1cccc(OCC(O)CNC(C)C)c1` (racemic) are 10.9 and 11.4.
